In PubChem BioAssay (NCI):
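Following 48 hours of exposure in 96-well plates, responses at five concentrations were used to interpolate endpoints linearly. Here, GI50 denotes the concentration required for 50% inhibition of growth. At the TGI there is no net growth.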

Legend:
Experiment in all cases: DTP human tumour cell line panel, 48 h
786-0 renal = test system: 786-0 renal
A498 renal = test system: A498 renal
A549 NSCLC = test system: A549 NSCLC
ACHN renal = test system: ACHN renal
BT-549 breast = test system: BT-549 breast
CAKI-1 renal = test system: CAKI-1 renal
CCRF-CEM leukemia = test system: CCRF-CEM leukemia
COLO 205 colon = test system: COLO 205 colon
DU-145 prostate = test system: DU-145 prostate
EKVX NSCLC = test system: EKVX NSCLC
HCC-2998 colon = test system: HCC-2998 colon
HCT-116 colon = test system: HCT-116 colon
HCT-15 colon = test system: HCT-15 colon
HL-60(TB) leukemia = test system: HL-60(TB) leukemia
HOP-62 NSCLC = test system: HOP-62 NSCLC
HOP-92 NSCLC = test system: HOP-92 NSCLC
HS 578T breast = test system: HS 578T breast
IGROV1 ovarian = test system: IGROV1 ovarian
KM12 colon = test system: KM12 colon
LOX IMVI melanoma = test system: LOX IMVI melanoma
M14 melanoma = test system: M14 melanoma
MALME-3M melanoma = test system: MALME-3M melanoma
MCF7 breast = test system: MCF7 breast
MDA-MB-231 breast = test system: MDA-MB-231 breast
MDA-MB-435 = test system: MDA-MB-435
MDA-MB-468 breast = test system: MDA-MB-468 breast
MOLT-4 leukemia = test system: MOLT-4 leukemia
NCI-H226 lung = test system: NCI-H226 lung
NCI-H23 lung = test system: NCI-H23 lung
NCI-H522 lung = test system: NCI-H522 lung
NCI/ADR-RES ovarian = test system: NCI/ADR-RES ovarian
OVCAR-3 ovarian = test system: OVCAR-3 ovarian
OVCAR-4 ovarian = test system: OVCAR-4 ovarian
OVCAR-5 ovarian = test system: OVCAR-5 ovarian
OVCAR-8 ovarian = test system: OVCAR-8 ovarian
PC-3 prostate = test system: PC-3 prostate
RPMI-8226 leukemia = test system: RPMI-8226 leukemia
RXF 393 renal = test system: RXF 393 renal
SF-268 CNS = test system: SF-268 CNS
SF-295 CNS = test system: SF-295 CNS
SF-539 CNS = test system: SF-539 CNS
SK-MEL-2 melanoma = test system: SK-MEL-2 melanoma
SK-MEL-28 melanoma = test system: SK-MEL-28 melanoma
SK-MEL-5 melanoma = test system: SK-MEL-5 melanoma
SK-OV-3 ovarian = test system: SK-OV-3 ovarian
SN12C renal = test system: SN12C renal
SNB-19 CNS = test system: SNB-19 CNS
SNB-75 CNS = test system: SNB-75 CNS
SW-620 colon = test system: SW-620 colon
T-47D breast = test system: T-47D breast
TK-10 renal = test system: TK-10 renal
U251 CNS = test system: U251 CNS
UACC-257 melanoma = test system: UACC-257 melanoma
UACC-62 melanoma = test system: UACC-62 melanoma
UO-31 renal = test system: UO-31 renal

## COc1ccc(-c2nc3cc(C)ccc3n2CC(=O)N=Nc2c(O)[nH]c3ccc(OC)cc23)cc1
786-0 renal
  GI50: 3.37 µM
  TGI: 11.7 µM
A498 renal
  GI50: 11.2 µM
  TGI: 24.6 µM
A549 NSCLC
  GI50: 1.99 µM
  TGI: 4.43 µM
ACHN renal
  GI50: 2.35 µM
  TGI: 6.23 µM
BT-549 breast
  GI50: 1.88 µM
  TGI: 4.01 µM
CAKI-1 renal
  GI50: 1.93 µM
  TGI: 5.45 µM
CCRF-CEM leukemia
  GI50: 3.6 µM
  TGI: 13.3 µM
COLO 205 colon
  GI50: 2.62 µM
  TGI: 7.93 µM
DU-145 prostate
  GI50: 3.54 µM
  TGI: 14.7 µM
EKVX NSCLC
  GI50: 3.28 µM
  TGI: 12.5 µM
HCC-2998 colon
  GI50: 3.66 µM
  TGI: 13.2 µM
HCT-116 colon
  GI50: 1.74 µM
  TGI: 3.27 µM
HCT-15 colon
  GI50: 2.56 µM
  TGI: 7.51 µM
HL-60(TB) leukemia
  GI50: 1.72 µM
  TGI: 5.22 µM
HOP-62 NSCLC
  GI50: 2.52 µM
  TGI: 6.96 µM
HOP-92 NSCLC
  GI50: 1.83 µM
  TGI: 4.07 µM
HS 578T breast
  GI50: 2.02 µM
  TGI: 5.15 µM
IGROV1 ovarian
  GI50: 6.83 µM
  TGI: 19.8 µM
KM12 colon
  GI50: 1.85 µM
  TGI: 3.72 µM
LOX IMVI melanoma
  GI50: 2.27 µM
  TGI: 5.81 µM
M14 melanoma
  GI50: 1.8 µM
  TGI: 3.38 µM
MALME-3M melanoma
  GI50: 1.94 µM
  TGI: 3.52 µM
MCF7 breast
  GI50: 2.01 µM
  TGI: 4.96 µM
MDA-MB-231 breast
  GI50: 2.04 µM
  TGI: 4.68 µM
MDA-MB-435
  GI50: 1.88 µM
  TGI: 3.76 µM
MDA-MB-468 breast
  GI50: 2.05 µM
  TGI: 4.41 µM
MOLT-4 leukemia
  GI50: 2.65 µM
  TGI: 8.57 µM
NCI-H226 lung
  GI50: 2 µM
  TGI: 4.31 µM
NCI-H23 lung
  GI50: 2.48 µM
  TGI: 6.88 µM
NCI-H522 lung
  GI50: 3.71 µM
  TGI: 15.3 µM
NCI/ADR-RES ovarian
  GI50: 2.34 µM
  TGI: 5.52 µM
OVCAR-3 ovarian
  GI50: 1.87 µM
  TGI: 4.39 µM
OVCAR-4 ovarian
  GI50: 1.84 µM
  TGI: 3.79 µM
OVCAR-5 ovarian
  GI50: 2.43 µM
  TGI: 8.93 µM
OVCAR-8 ovarian
  GI50: 2.3 µM
  TGI: 5.89 µM
PC-3 prostate
  GI50: 2.3 µM
  TGI: 6.65 µM
RPMI-8226 leukemia
  GI50: 3.22 µM
  TGI: 14.9 µM
RXF 393 renal
  GI50: 1.48 µM
  TGI: 3.27 µM
SF-268 CNS
  GI50: 2.43 µM
  TGI: 8.3 µM
SF-295 CNS
  GI50: 3.59 µM
  TGI: 13.7 µM
SF-539 CNS
  GI50: 1.62 µM
  TGI: 3 µM
SK-MEL-2 melanoma
  GI50: 5.39 µM
  TGI: 19.7 µM
SK-MEL-28 melanoma
  GI50: 1.73 µM
  TGI: 3.19 µM
SK-MEL-5 melanoma
  GI50: 1.64 µM
  TGI: 3.16 µM
SK-OV-3 ovarian
  GI50: 4.32 µM
  TGI: 15.6 µM
SN12C renal
  GI50: 1.8 µM
  TGI: 4.08 µM
SNB-19 CNS
  GI50: 4.3 µM
  TGI: 16.1 µM
SNB-75 CNS
  GI50: 1.49 µM
  TGI: 3.35 µM
SW-620 colon
  GI50: 2.11 µM
  TGI: 5.1 µM
T-47D breast
  GI50: 2.43 µM
  TGI: 6.5 µM
TK-10 renal
  GI50: 3.13 µM
  TGI: 11.9 µM
U251 CNS
  GI50: 2.09 µM
  TGI: 4.24 µM
UACC-257 melanoma
  GI50: 2.38 µM
  TGI: 6.02 µM
UACC-62 melanoma
  GI50: 1.84 µM
  TGI: 5.05 µM
UO-31 renal
  GI50: 11.2 µM
  TGI: 23.6 µM
